How the values were obtained:
[1] = DRUGMATRIX: Platelet-Derived Growth Factor (PDGF) radioligand binding (ligand: [125I] PDGF); type: cell-based; settings: nih3t3; Not Active = under 50% inhibition at 10 µM
Vasopressin V1a receptor = Vasopressin V1a receptor (Homo sapiens, UniProt P37288); type: cell membranes, Membrane; settings: hek293; also: in other assays of this panel Not Active means under 50% inhibition at 10 µM
[2] = DRUGMATRIX: Sodium/nucleoside co-transporter radioligand binding (ligand: nitrobenzylthioinosine); type: cell membranes, Cavia porcellus, Dunkin-Hartley, Cerebral cortex, Membrane; settings: Not Active = under 50% inhibition at 10 µM
[3] = DRUGMATRIX: Interleukin IL-1 radioligand binding (ligand: [125I] interleukin 1beta); type: cell membranes, Membrane; settings: nih3t3; Not Active = under 50% inhibition at 10 µM
Cytochrome P450 2D6 = Cytochrome P450 2D6 (Homo sapiens, UniProt P10635); settings: bti-tn-5b1-4; also: in other assays of this panel Not Active means under 50% inhibition at 10 µM
Estrogen receptor beta = Estrogen receptor beta (Homo sapiens, UniProt Q92731); settings: sf9; also: in other assays of this panel Not Active means under 50% inhibition at 10 µM
[4] = DRUGMATRIX: Glutamate, Kainate radioligand binding (ligand: [3H] Kainic acid); type: cell membranes, Rattus norvegicus, Wistar, Brain, Membrane; settings: Not Active = under 50% inhibition at 10 µM
[5] = DRUGMATRIX: Sigma2 radioligand binding (ligand: [3H] Ifenprodil); type: cell membranes, Rattus norvegicus, Wistar, Brain, Membrane; settings: Not Active = under 50% inhibition at 10 µM
Nitric oxide synthase 1 = Nitric oxide synthase 1 (Rattus norvegicus, UniProt P29476); type: tissue-based, Cerebellum; also: in other assays of this panel Not Active means under 50% inhibition at 10 µM
Nitric oxide synthase 1, sequence (P29476 whole entry): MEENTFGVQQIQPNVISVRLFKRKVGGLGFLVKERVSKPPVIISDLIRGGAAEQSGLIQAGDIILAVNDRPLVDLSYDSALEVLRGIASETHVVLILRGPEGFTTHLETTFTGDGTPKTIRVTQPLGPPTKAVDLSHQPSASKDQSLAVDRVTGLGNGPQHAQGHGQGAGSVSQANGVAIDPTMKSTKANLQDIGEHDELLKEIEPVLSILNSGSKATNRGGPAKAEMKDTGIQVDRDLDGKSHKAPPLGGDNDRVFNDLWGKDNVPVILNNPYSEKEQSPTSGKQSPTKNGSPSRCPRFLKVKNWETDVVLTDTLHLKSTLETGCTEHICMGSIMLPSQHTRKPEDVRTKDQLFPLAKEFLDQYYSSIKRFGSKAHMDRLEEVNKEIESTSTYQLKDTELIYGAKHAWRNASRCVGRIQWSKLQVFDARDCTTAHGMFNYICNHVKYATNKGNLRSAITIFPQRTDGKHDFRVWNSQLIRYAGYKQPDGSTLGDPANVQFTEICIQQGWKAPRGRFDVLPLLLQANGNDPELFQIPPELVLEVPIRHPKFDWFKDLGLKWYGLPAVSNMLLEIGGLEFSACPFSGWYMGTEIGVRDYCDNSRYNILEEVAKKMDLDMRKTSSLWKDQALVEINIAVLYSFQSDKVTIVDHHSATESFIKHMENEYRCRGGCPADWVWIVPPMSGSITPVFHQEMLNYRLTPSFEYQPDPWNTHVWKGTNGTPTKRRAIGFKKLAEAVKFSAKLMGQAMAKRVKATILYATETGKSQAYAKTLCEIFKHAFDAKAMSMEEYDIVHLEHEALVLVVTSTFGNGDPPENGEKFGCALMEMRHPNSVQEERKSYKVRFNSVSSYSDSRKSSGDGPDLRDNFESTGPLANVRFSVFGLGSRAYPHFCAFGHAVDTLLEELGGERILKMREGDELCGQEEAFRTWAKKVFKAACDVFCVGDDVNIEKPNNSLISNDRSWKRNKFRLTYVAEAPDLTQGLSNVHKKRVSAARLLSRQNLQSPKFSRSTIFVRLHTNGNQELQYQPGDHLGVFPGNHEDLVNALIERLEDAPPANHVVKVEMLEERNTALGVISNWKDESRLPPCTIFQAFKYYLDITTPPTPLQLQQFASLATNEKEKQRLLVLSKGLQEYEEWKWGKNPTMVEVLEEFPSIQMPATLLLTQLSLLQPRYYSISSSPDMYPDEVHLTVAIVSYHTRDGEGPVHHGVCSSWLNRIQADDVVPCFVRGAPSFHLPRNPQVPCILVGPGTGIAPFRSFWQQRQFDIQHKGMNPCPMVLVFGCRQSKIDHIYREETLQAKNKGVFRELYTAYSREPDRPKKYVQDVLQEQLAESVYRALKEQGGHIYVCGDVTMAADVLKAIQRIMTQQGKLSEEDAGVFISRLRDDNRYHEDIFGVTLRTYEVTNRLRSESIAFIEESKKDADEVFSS

Vasopressin V1a receptor, sequence (P37288 whole entry): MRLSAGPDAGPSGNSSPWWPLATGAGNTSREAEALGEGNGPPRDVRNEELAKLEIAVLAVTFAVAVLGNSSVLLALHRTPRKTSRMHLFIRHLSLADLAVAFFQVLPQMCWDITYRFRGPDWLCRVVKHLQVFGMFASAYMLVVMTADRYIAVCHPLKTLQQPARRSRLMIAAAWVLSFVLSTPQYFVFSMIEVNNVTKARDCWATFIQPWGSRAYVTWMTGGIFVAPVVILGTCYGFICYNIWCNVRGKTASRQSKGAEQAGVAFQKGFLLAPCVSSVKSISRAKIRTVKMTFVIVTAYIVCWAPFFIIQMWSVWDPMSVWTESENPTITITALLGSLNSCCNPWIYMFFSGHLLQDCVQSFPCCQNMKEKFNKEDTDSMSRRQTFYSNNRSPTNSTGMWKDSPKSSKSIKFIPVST
Estrogen receptor beta, sequence (Q92731 whole entry): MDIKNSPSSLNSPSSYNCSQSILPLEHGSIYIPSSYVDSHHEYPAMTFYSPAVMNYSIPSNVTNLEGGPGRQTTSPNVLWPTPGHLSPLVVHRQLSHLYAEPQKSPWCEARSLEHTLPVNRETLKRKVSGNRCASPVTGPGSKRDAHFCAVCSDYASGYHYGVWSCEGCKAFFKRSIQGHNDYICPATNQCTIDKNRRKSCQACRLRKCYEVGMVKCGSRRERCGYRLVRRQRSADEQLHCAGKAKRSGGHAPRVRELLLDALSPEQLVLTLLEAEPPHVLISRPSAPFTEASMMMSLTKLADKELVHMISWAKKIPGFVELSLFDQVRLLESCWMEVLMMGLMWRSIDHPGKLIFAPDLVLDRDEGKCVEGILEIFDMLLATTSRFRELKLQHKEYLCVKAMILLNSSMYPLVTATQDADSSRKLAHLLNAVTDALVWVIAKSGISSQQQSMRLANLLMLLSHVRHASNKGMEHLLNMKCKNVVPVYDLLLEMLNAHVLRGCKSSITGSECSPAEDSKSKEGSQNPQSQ
Cytochrome P450 2D6, sequence (P10635 whole entry): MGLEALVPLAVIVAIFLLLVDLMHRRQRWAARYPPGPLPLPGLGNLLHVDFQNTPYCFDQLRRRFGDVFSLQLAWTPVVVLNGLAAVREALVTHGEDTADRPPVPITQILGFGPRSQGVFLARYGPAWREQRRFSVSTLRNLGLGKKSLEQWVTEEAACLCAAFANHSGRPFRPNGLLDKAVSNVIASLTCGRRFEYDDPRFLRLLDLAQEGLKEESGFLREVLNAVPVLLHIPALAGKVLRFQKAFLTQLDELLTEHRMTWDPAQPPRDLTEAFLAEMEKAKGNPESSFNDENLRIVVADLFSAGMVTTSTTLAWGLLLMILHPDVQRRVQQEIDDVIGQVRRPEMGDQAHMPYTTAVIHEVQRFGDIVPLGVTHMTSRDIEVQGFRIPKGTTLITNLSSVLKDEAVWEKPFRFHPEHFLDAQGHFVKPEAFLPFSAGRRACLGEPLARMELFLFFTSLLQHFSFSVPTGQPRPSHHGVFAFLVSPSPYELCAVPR

| Structure (SMILES) | IC50 [1] | Ki [1] | IC50 (Vasopressin V1a receptor) | IC50 [2] | Ki [2] | IC50 [3] | Ki [3] | IC50 (Cytochrome P450 2D6) | Ki (Cytochrome P450 2D6) | IC50 (Estrogen receptor beta) | IC50 [4] | Ki [4] | IC50 [5] | Ki [5] | IC50 (Nitric oxide synthase 1) | IC50 ([5]; read-out: IC50) | Ki ([5]; read-out: Ki) |
| --- | --- | --- | --- | --- | --- | --- | --- | --- | --- | --- | --- | --- | --- | --- | --- | --- | --- |
| CC(C)Cc1ccc([C@H](C)C(=O)O)cc1 [DEXIBUPROFEN] | Not Active | Not Active | Not Active | Not Active | Not Active | Not Active | Not Active | Not Active | Not Active | Not Active | Not Active | Not Active | Not Active | Not Active | Not Active | – | – |
| COc1ccc(C[C@H](N)C(=O)N[C@H]2[C@@H](O)[C@H](n3cnc4c(N(C)C)ncnc43)O[C@@H]2CO)cc1 [PUROMYCIN] | Not Active | Not Active | Not Active | Not Active | Not Active | Not Active | Not Active | Not Active | Not Active | Not Active | Not Active | Not Active | Not Active | Not Active | Not Active | – | – |
| CCC1(c2ccccc2)C(=O)NC(=O)NC1=O [PHENOBARBITAL] | Not Active | Not Active | Not Active | Not Active | Not Active | Not Active | Not Active | Not Active | Not Active | Not Active | Not Active | Not Active | Not Active | Not Active | Not Active | – | – |
| OC[C@H]1OC2C3[C@@H](CO)OC(O[C@H]4[C@H](O)[C@@H](O)[C@@H](O[C@H]5[C@H](O)[C@@H](O)[C@@H](O[C@H]6[C@H](O)[C@@H](O)[C@@H](O[C@H]7[C@H](O)[C@@H](O)[C@@H](O[C@H]8[C@H](O)[C@@H](O)[C@@H](O[C@H]9[C@H](O)[C@@H](O)C(OC1[C@H](O)[C@H]2O)O[C@@H]9CO)O[C@@H]8CO)O[C@@H]7CO)O[C@@H]6CO)O[C@@H]5CO)O[C@@H]4CO)[C@H](O)[C@H]3O | Not Active | Not Active | Not Active | Not Active | Not Active | Not Active | Not Active | Not Active | Not Active | Not Active | Not Active | Not Active | Not Active | Not Active | Not Active | – | – |
| Cc1cc(C(C)(C)C)c(O)c(C)c1CC1=NCCN1 [OXYMETAZOLINE] | Not Active | Not Active | Not Active | Not Active | Not Active | Not Active | Not Active | – | – | Not Active | Not Active | Not Active | Not Active | Not Active | Not Active | – | – |
| CN(Cc1cc(Br)cc(Br)c1N)C1CCCCC1 [BROMHEXINE] | Not Active | Not Active | Not Active | Not Active | Not Active | Not Active | Not Active | – | – | Not Active | Not Active | Not Active | – | – | Not Active | 59 nM | 36 nM |
| O=C(O)CNCP(=O)(O)O [GLYPHOSATE] | Not Active | Not Active | Not Active | Not Active | Not Active | Not Active | Not Active | – | – | Not Active | Not Active | Not Active | Not Active | Not Active | Not Active | – | – |
| CC(N)Cc1c[nH]c2ccc(OCc3cccs3)cc12 (stereo unspecified) [BW-723C86] | Not Active | Not Active | Not Active | Not Active | Not Active | Not Active | Not Active | – | – | Not Active | Not Active | Not Active | Not Active | Not Active | Not Active | – | – |
| CCN(CCO)CCCC(C)Nc1ccnc2cc(Cl)ccc12 (stereo unspecified) [HYDROXYCHLOROQUINE] | Not Active | Not Active | Not Active | Not Active | Not Active | Not Active | Not Active | – | – | Not Active | Not Active | Not Active | Not Active | Not Active | Not Active | – | – |
| c1ccc(Cn2ccnc2)cc1 | Not Active | Not Active | Not Active | Not Active | Not Active | Not Active | Not Active | – | – | Not Active | Not Active | Not Active | Not Active | Not Active | Not Active | – | – |
| CCCCCCNC(=O)n1cc(F)c(=O)[nH]c1=O [CARMOFUR] | Not Active | Not Active | Not Active | Not Active | Not Active | Not Active | Not Active | – | – | Not Active | Not Active | Not Active | Not Active | Not Active | Not Active | – | – |
